Consider 90 compounds from PubChem BioAssay AID467 (The Scripps Research Institute Molecular Screening Center, 2006).

Each structure is given as a SMILES string. Calls of active or inactive are those of the source. The rule behind the calls is not given here.

This test deals with parental cell line counter screen, S1P1 agonist assay readout. Put plainly: signal in parental cells, counter-screen for S1P1 agonist project (AID 467;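 note: agonist potency measured against forskolin stimulation plus an EC20 level of SEW2871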). (A counterscreen serves to expose hits that act by an unwanted route or on another target.)
`CC1CCCC(C)N1C(=O)CN1CCN(c2nc(-c3ccc(F)cc3)cs2)CC1` (stereo not given): the EC50 (in general, the concentration needed to bring the measured effect to its halfway point) is 21.7 µM (inactive).

As for `Cc1cc(C(=O)CSc2nnc(-c3ccco3)o2)c(C)n1-c1ccc2c(c1)OCCO2`, the EC50 is > 10 µM (inactive). As to `CCN(CC)c1ccc2cc(NC(=O)CCC(=O)O)c(=O)oc2c1`, the EC50 is 6.1 µM.

Regarding `COC(=O)c1cc(NCc2ccccc2F)ccc1N1CCOCC1`, the EC50 is > 95.1 µM (inactive). With `CCN(CC)C(=O)C1CCN(S(=O)(=O)c2ccc3oc4ccccc4c3c2)CC1`, the EC50 is > 95.1 µM (inactive). On to `CSc1ccc(S(=O)(=O)Nc2ccc3c(c2)OCCO3)cc1`, for which the EC50 is 67.2 µM (inactive). Consider `Cn1cccc1C(=O)OCc1cc(Cl)cc2c1OCOC2`, for which the EC50 is > 30 µM (inactive).

Regarding `CC(C)(C)NC(=O)CSc1ncnc2c1nnn2Cc1ccccc1Cl`, the EC50 was 7.01 µM. For the compound `CC(C)(CC(=O)N1CCN(c2ccc(Cl)cc2)CC1)CC1=NS(=O)(=O)c2ccccc2N1`, the EC50 was 19.9 µM (inactive). Consider `COc1cccc(-c2nnc3sc(C4CCCCC4)nn23)c1`, for which the EC50 was 44.2 µM (inactive). As to `Cc1cc(C(=O)Nc2sc(C)c(-c3ccc(F)cc3)c2C(N)=O)no1`, the EC50 was > 95.1 µM (inactive). Take `Cc1oc2cc(O)cc(O)c2c(=O)c1-c1ccc2c(c1)OCCCO2`: the EC50 is > 30 µM (inactive). For the compound `Cn1c(C(=O)N2CCc3ccccc3C2)cc2oc3ccccc3c21`, the EC50 is 66.4 µM (inactive). Take `COc1ccc(CNC(=O)c2cc3c(C)nc4ccccc4c3o2)c(OC)c1`: the EC50 was > 95.1 µM (inactive). Consider `CCOc1ccccc1COC(=O)c1cccc(-n2cnnn2)c1`, for which the EC50 is > 95.1 µM (inactive). Regarding `COc1ccc(Cc2nc(-c3ccc(-n4cccc4)cc3)no2)cc1OC`, the EC50 is > 95.1 µM (inactive). Regarding `CCc1cc2c(N3CCN(c4ccccc4)CC3)ncnc2s1`, the EC50 was 16.3 µM (inactive). `COc1ccc(-n2nc3ccc(NS(C)(=O)=O)cc3n2)cc1Cl`: the EC50 was > 95.1 µM (inactive).

Turning to `c1ccc(CSc2nnc(-c3c[nH]c4ccccc34)o2)cc1`, the EC50 was 41.4 µM (inactive). `COc1ccccc1-n1nnnc1S(=O)(=O)Cc1ccc(Cl)cc1`: the EC50 was 3.05 µM. `Cc1ccc2oc(-c3ccc(NC(=O)c4cccnc4)cc3)nc2c1`: the EC50 is > 95.1 µM (inactive).

Take `O=C(OC1CCCCC1)c1ccc(NC(=O)c2ccco2)cc1`: the EC50 was > 30 µM (inactive). Turning to `Cc1ccc(-n2c(C)cc(C(=O)CSc3nnnn3C)c2C)cc1`, the EC50 is > 95.1 µM (inactive). In the case of `c1ccc(C(Cc2nc(-c3cccnc3)no2)c2ccccc2)cc1`, the EC50 was > 95.1 µM (inactive).

For the compound `CC(=O)Nc1ccc(S(=O)(=O)N2CCN(c3cccc(C)c3C)CC2)cc1`, the EC50 was 36.5 µM (inactive). For `C=CCOC(=O)c1[nH]c2c(c1C)C(=O)CC(c1cc(OC)c(OC)c(OC)c1)C2` (stereo not given), the EC50 was > 95.1 µM (inactive). Under `Cc1nc2ncnn2c(N2CCN(c3cccc(C(F)(F)F)c3)CC2)c1C` stands > 30 µM (inactive); under `CCOC(=O)c1oc2ccc(S(=O)(=O)n3nc(-c4ccc(OC)cc4)cc3N)cc2c1C`, > 95.1 µM (inactive). Under `Cc1cc(-c2nnc(-c3ccccc3)c(-c3ccccc3)n2)c(C)o1` stands 33.7 µM (inactive). Under `CC(C)Oc1cc(O)c2c(=O)c(-c3ccc(O)cc3)coc2c1` stands 20.5 µM (inactive); under `CC(C)Cn1c(=O)c(C(=O)Nc2ccccc2S(N)(=O)=O)c(O)c2ccccc21`, 16.3 µM (inactive); under `COc1ccc(S(=O)(=O)N2CCN(c3ccc(C)cc3C)CC2)cc1OC`, 28.4 µM (inactive). Consider `CC(C)(C)SCCNS(=O)(=O)c1ccccc1`, for which the EC50 was > 95.1 µM (inactive).

Take `Cc1ccc2[nH]c3c(N4CCCCCC4)ncnc3c2c1`: the EC50 was 10.9 µM (inactive). As to `Clc1ccc(CSc2nnc(-c3ccncc3)o2)c(Cl)c1`, the EC50 was > 95.1 µM (inactive).

Take `COCCn1c(C)cc(C(=O)CSc2nnc(-c3cccnc3)n2-c2ccccc2F)c1C`: the EC50 was > 95.1 µM (inactive). `Fc1ccc2[nH]c3c(N4CCSCC4)ncnc3c2c1`: the EC50 was 11 µM (inactive).

Turning to `CCCOc1ccc(S(=O)(=O)NCc2ccc(OC)cc2)cc1`, the EC50 was > 30 µM (inactive).

`COc1ccccc1Oc1ccc2c(c1)C(=O)N(c1ccc(O)cc1)C2=O`: the EC50 was > 95.1 µM (inactive). For `CCCS(=O)(=O)c1nnnn1-c1cccc(OC)c1` the value was 0.988 µM. As for `Cc1cccc(N2CCN(C(=O)CSCc3c(C)noc3C)CC2)c1C`, the EC50 was > 30 µM (inactive). `Cc1cc(C(=O)N2CCN(C(c3ccccc3)c3ccccc3)CC2)on1`: the EC50 is > 95.1 µM (inactive).

As for `CC(=O)c1ccc(N2CCN(c3ccc(C(F)(F)F)cn3)CC2)cc1`, the EC50 was > 95.1 µM (inactive). For `Cc1cc(C)n(-c2nc3ccccc3c(=O)n2OCCOc2ccccc2)n1` the value was > 95.1 µM (inactive); for `C=CS(=O)(=O)c1ccc(Oc2ccc(S(=O)(=O)C=C)cc2)cc1`, 1.06 µM; for `CC1=CC(C)(C)Nc2ccc(OC(=O)c3cccnc3)cc21`, 4.43 µM.

On to `O=C(c1ccc(Cl)s1)N1CCN(c2nc3ccccc3s2)CC1`, for which the EC50 is > 95.1 µM (inactive). For `CCc1cc(-c2[nH]ncc2-c2ccc3c(c2)OCO3)c(O)cc1O` the value was 9.08 µM; for `CCSc1nc(N2CCOCC2)c2c(c1C#N)CCCC2`, > 95.1 µM (inactive). For `CC(C)c1cc(C(=O)N2CCN(C(c3ccccc3)c3ccccc3)CC2)no1`, the EC50 was > 95.1 µM (inactive). For `Cc1nn(Cc2ccc(Cl)cc2)c(C)c1NC(=O)c1cc(-c2ccco2)on1` the value was 85.2 µM (inactive); for `Cc1cc(C(=O)CSc2nnnn2-c2ccc(O)cc2)c(C)n1Cc1ccc2c(c1)OCO2`, 11.9 µM (inactive). For `Cc1cc(/C=N/n2cnnc2)c(C)n1-c1ccc(OCc2ccccc2F)cc1` the value was 7.37 µM.

Turning to `O=C(CSc1nc2ccccc2o1)Nc1ccc(N2CCOCC2)c(Cl)c1`, the EC50 was 19.6 µM (inactive).

As for `Cn1c(SCC(=O)Nc2ccc(N3CCOCC3)c(Cl)c2)nnc1-c1ccccc1`, the EC50 was > 95.1 µM (inactive). For `C/C(N)=C(/C#N)C(=O)CSc1nnc(SCc2ccc(Cl)cc2)s1` the value was > 95.1 µM (inactive). For `Cc1occc1C(=O)N1CCN(c2ccc(Cl)c(Cl)c2)CC1`, the EC50 is 43.9 µM (inactive). `Cc1oc(-c2ccccc2)nc1Cn1cccc1C1=NC(c2ccccc2)CO1` (stereo not given): the EC50 is > 95.1 µM (inactive). For `Cc1cc(C)n2nc(SCC(=O)c3cc(C)n(-c4cc(C)on4)c3C)nc2n1`, the EC50 is 63.5 µM (inactive).

On to `CC(C)Cn1c(N)c(C(=O)CSc2ccc3c(c2)OCCO3)c(=O)n(C)c1=O`, for which the EC50 was 88.5 µM (inactive). As to `CC1CCc2nc(NC(=O)CSc3nc4ccccc4o3)sc2C1` (stereo not given), the EC50 is > 95.1 µM (inactive). For the compound `Nc1nonc1C(=O)NCCNCc1cc(Br)ccc1OCc1ccccc1F`, the EC50 is 28.9 µM (inactive). On to `CC(C)OCCCNc1ncnc2c1[nH]c1ccccc12`, for which the EC50 is 43 µM (inactive). For `N#Cc1nc(COc2ccc(Cl)cc2Cl)oc1N1CCN(c2ccccc2)CC1`, the EC50 was > 95.1 µM (inactive). On to `CC1CC(C)(C)Nc2ccc(OC(=O)c3ccco3)cc21` (stereo not given), for which the EC50 is 7.66 µM. Turning to `CCOC(=O)CN1C(=O)C(C)(C)Oc2ccc(C(=O)Nc3ccccc3OC)cc21`, the EC50 is > 95.1 µM (inactive). As to `COc1cccc2sc(Nc3nc(-c4ccccn4)cs3)nc12`, the EC50 was 8.08 µM. Take `Cn1nc(CC(=O)Nc2ccc(N3CCN(C(=O)OC(C)(C)C)CC3)cc2)c2ccccc2c1=O`: the EC50 is > 95.1 µM (inactive).

Turning to `COc1cccc(-c2cc(C(=O)Nc3ccccc3SC)no2)c1`, the EC50 is > 95.1 µM (inactive). Consider `CCCCn1ccnc1C(=O)c1cccc(S(=O)(=O)N2c3ccccc3CC2C)c1` (stereo not given), for which the EC50 is > 95.1 µM (inactive).

As for `COc1ccc(-n2c(C)c(C(C)=O)c3cc(O)ccc32)cc1`, the EC50 was > 95.1 µM (inactive). For `CC(C)c1ccc2oc(-c3ccc(N)cc3)nc2c1`, the EC50 was > 30 µM (inactive). For `Cc1nc2ccccc2c2oc(C(=O)NCC3COc4ccccc4O3)cc12` (stereo not given), the EC50 is 20.2 µM (inactive). For `Cc1ccc(OCCn2cc(/C(N)=N/O)c3ccccc32)cc1C` the value was 17 µM (inactive); for `CCCC(=O)Nc1ccc(-c2nc3cc(C)ccc3o2)cc1`, > 95.1 µM (inactive). Under `Oc1ccc(-c2nnc(SCC3CCCCC3)o2)cc1` stands > 10 µM (inactive).

Consider `CCN(CC)C(=O)Oc1ccc2c(=O)c(-c3ccccc3)coc2c1`, for which the EC50 is > 95.1 µM (inactive). For `Brc1ccc2ncnc(Nc3ccc(N4CCOCC4)cc3)c2c1` the value was 46.6 µM (inactive). Regarding `CCCCc1ccc(C2C(C#N)=C(N)SC(N)=C2C#N)s1`, the EC50 is 16.8 µM (inactive). On to `COc1ccc(-n2nnnc2S(=O)(=O)CC(=O)N2CCCCC2)cc1`, for which the EC50 is 2.35 µM.

Regarding `CCOC(=O)c1c(C)[nH]c(C(=O)C(C)OC(=O)c2cccc(OCc3c(C)noc3C)c2)c1C` (stereo not given), the EC50 was 20.1 µM (inactive). On to `Cc1ccc(-c2n[nH]c(=S)n2C)cc1`, for which the EC50 is > 95.1 µM (inactive). For `O=C(c1cc(-c2ccc(O)cc2)on1)N1CCc2ccccc2C1` the value was > 30 µM (inactive); for `Cc1cccc(OCCCCc2c(C)n[nH]c2C)c1`, > 30 µM (inactive). On to `CCCCOc1ccc(S(=O)(=O)Nc2cc(OC)ccc2OC)cc1`, for which the EC50 was > 30 µM (inactive). Under `CC(C)c1cc(C(F)(F)F)n2nc(C(=O)Nc3ccc4c(c3)OCO4)cc2n1` stands > 95.1 µM (inactive); under `Cc1csc(NC(=O)c2nc(-c3ccccc3)n(-c3ccccc3)n2)n1`, > 95.1 µM (inactive). For `C/C(N)=C(/C#N)C(=O)CSc1nc2cc(Cl)ccc2s1`, the EC50 was 49.5 µM (inactive).

In the case of `CCCCOc1ccc(S(=O)(=O)n2c(C)nc3ccccc32)cc1`, the EC50 is > 95.1 µM (inactive). With `Cn1ncnc2c(=O)n(C)c(=O)nc1-2`, the EC50 was 1.8 µM.
